From US9675564B2, “Composition based on ubidecarenone” (Asoltech Srl, priority 2011, dated 2017) come the findings set out here.

As a reminder, the solubility is how much of the substance goes into solution per volume.

Series [1] is described as follows: Solubility in water at 37° C. (excess powder, CoQ10 passing into solution by UV or HPLC). Format: physicochemical. The following applies: thermodynamic from solid. The method, then:
The solubility in water at 37° C. (physiological temperature) of the composition according to the present invention was compared with that of the compositions in the examples of comparison.
Verification is carried out after 1 hour and 24 hours (balanced) using the suitable analytical method (for example UV or HPLC spectrophotometry) of the maximum quantity of coenzyme Q10 that passes into the solution.

The test system of series [2] is H9C2 cells. The series is described as follows: Absorption in cardiomyoblasts: intracell penetration and penetration of the mitochondrial membrane, CoQ10 quantified by HPLC. Format: cell-based, rats. As to conditions: cultured cells after administration; FIG. 2. On the procedure: Despite the large number of clinical studies on the effects of Coenzyme Q10 supplementation, there are very few experimental data concerning the content of coenzyme Q10 in mitochondria and the cell energy condition after supplementation. Probably, controversial results of clinical and in vitro studies are mainly due to the bio-availability of the form of coenzyme Q10 used.
For this analysis, T67 cells of human astrocytoma and H9C2 cells from rats, deriving from the heart, were cultured in a Dulbecco's modified Eagle medium (DMEM), supplemented with 10% of fetal bovine serum (FBS), 100 Ul/ml of penicillin, 100 μg/ml of streptomycin and 40 μg/ml of gentamicin, in an atmosphere of 5% CO2 at 37° C., with saturation humidity. The vitality of the cells and their number were measured using the exclusion method with Tripan blue (Lowry et al.). The mitochondria were isolated using known procedures (Chomyn, 1996). The cells treated were washed carefully with PBS before the extraction procedures. The extraction of the coenzyme Q10 from the isolated cells and mitochondria was performed as described by Takada et al. (Takada et al., 1984). The quantification of the coenzyme Q10 was done by means of HPLC analysis. […]

In brackets after ≈: the same amount, converted by molar mass.

In the case of `COC1=C(OC)C(=O)C(C/C=C(\C)CC/C=C(\C)CC/C=C(\C)CC/C=C(\C)CC/C=C(\C)CC/C=C(\C)CC/C=C(\C)CC/C=C(\C)CC/C=C(\C)CCC=C(C)C)=C(C)C1=O` [CoQ10, ubidecarenone], the solubility at 1 h in series [1] (after 1 hour) came to 1 µg/mL (≈ 1.16 µM). In series [1] (after 24 hours (balanced)), this molecule showed a solubility at 24 h of 4 µg/mL (≈ 4.63 µM). Also, the “CoQ10 passing from the whole cells to the mitochondria” value in series [2] was 4%.
